We go through 22 compounds from patent publication US20240376114A1, “NUCLEAR TRANSPORT MODULATORS AND USES THEREOF” (Karyopharm Therapeutics Inc., priority 2011, published 2024).

The nature of data set [1]: Pharmacokinetic (PK) assay, plasma AUC. Type of data set: in vivo. The following applies: mouse, PO. Here is the method: Pharmacokinetics (PK) play an increasing role in drug discovery and development. Pharmacokinetics is the quantitative study of the time course of drug absorption, distribution, metabolism and/or excretion. When a drug is administered, it distributes rapidly from its administration site into the systemic blood circulation. One measure of the extent of a therapeutic agent's distribution is the area under the plasma concentration-time curve (AUC), calculated to the last measured concentration (AUCt) and extrapolated to infinity (AUCinf). AUC is thus a useful metric to quantitate drug exposure. AUC. Blood was collected from mice (N=3) to contribute to the total of 10 time points (pre-dose, 5 min, 15 min, 30 min, 1 hour, 2 hours, 4 hours, 8 hours, 12 hours and 24 hours post dose). Mice were bled on a rotating basis, each mouse contributing 3 time points to the blood collection. At the designated time points, animals were anaesthetized under isoflurane, and approximately 110 μL of blood per time point was collected via retro-orbital puncture into pre-cooled K2EDTA (anti-coagulant) tubes. Blood samples were put on wet ice and centrifuged (2000 g, 5 min at 4° C.) to obtain plasma within 30 minutes of sample collection. All samples were stored frozen at approximately −80° C. until analysis. Prior to analysis, samples were mixed with internal standard (dexamethasone) in acetonitrile, vortexed, centrifuged, and supernatant was injected for analysis. Concentration of compounds in plasma was determined using LC-MS-MS instrumentation (API 4000, Triple Quadruple with electrospray ionization; Acuity Ultra Performance Liquid Chromatography column C18, with MeOH and formic acid as organic solvents). AUC values were calculated using WinNonlin Professional 6.2 software package, non-compartmental pharmacokinetic model NCA200.

The nature of data set [2]: CellTiter 96 AQueous One Solution (MTS) cell proliferation assay. Type of data set: cell-based. As to conditions: human, MM.1S multiple myeloma cells; MM.1S cells, 72 h treatment; read-out: Cytotoxicity [EC50]. The source says:
(§1) The CellTiter 96® AQueous One Solution cell proliferation assay (Promega) was used on MM.1S multiple myeloma cell line to study the cytotoxic and cytostatic properties of the compounds. The assay is based on the cleavage of the tetrazolium salt, MTS, in the presence of an electron-coupling reagent PES (phenazine ethosulfate). The MTS tetrazolium compound is bioreduced by cells into a colored formazan product that is soluble in tissue culture medium. This conversion is presumably accomplished by NADPH or NADH produced by dehydrogenase enzymes in metabolically active cells. Assays are performed by adding a small amount of the CellTiter 96® AQueous One solution reagent directly to culture wells, incubating for 1-4 hours and then recording the absorbance at 490 nm with a 96-well plate reader.
(§2) The cells were seeded at 5×10^3 to 1.5×10^4 cells (depending on cell type) in each well of a 96-well plate in 100 μL of fresh culture medium and adherent cells were allowed to attach overnight. The stock solutions of the compounds were diluted in cell culture medium to obtain eight concentrations of each drug, ranging from 1 nM to 30 μM and DMSO at less than 1% v/v was used as a negative control. The resulting drug solutions were transferred onto the cells. After 72 h of treatment, 20 μl of CellTiter 96® AQueous reagent was added into each well of the 96-well assay plates and the plate was incubated at 37° C. for 1-4 hours in a humidified, 5% CO2 atmosphere. Then the absorbance of each well was recorded at 490 nm using a 96-well plate reader. In most cases, the assay was performed in triplicate and the results were presented as half maximal inhibitory concentration (IC50). Optical density versus compound concentration was plotted and analyzed using non-linear regression equations (IDBS XLfit) and the IC50 for each compound was calculated.

The nature of data set [3]: Brain to plasma (B:P) ratio determination. Format: in vivo. As to conditions: brain and plasma; mouse, PO at 10 mg/kg, 2 hours post-dose. From the text:
The brain to plasma (B:P) ratio is one method of quantifying the relative distribution of a therapeutic agent in brain tissue to that in circulation and, as such, provides one indication of the brain penetration of a given therapeutic agent. A high brain to plasma ratio is preferred when targeting diseases localized in the central nervous system (CNS), including the brain and the cerebrospinal fluid. However, a lower brain to plasma ratio is generally preferable for non-CNS therapeutic agents to minimize brain penetration and avoid potential side effects caused by unwanted accumulation of the therapeutic agents in the brain and CNS tissue.
Brain to Plasma (B:P) Ratio. […] Following collection, brain tissue was rinsed with cold saline, dried on filter paper, weighed and snap-frozen by placing on dry ice. All samples were stored frozen at approximately −80° C. until analysis. […] Plasma samples were treated with the identical method (except homogenization step) and the concentration of compound in each matrix was calculated based on generated standard curves.

Data set [4] has as its system MM.1S multiple myeloma cell line. Briefly: CellTiter 96 AQueous One Solution (MTS) cell proliferation assay. Type of data set: cell-based.
From the text: as §1, §2

[5] abbreviates: 10 mg/kg, 10 mpk, read-out: AUCInf hr * ng/mL (mouse, PO, 10 mpk).
Where [6] appears, read: 5 mg/kg, 5 mpk, read-out: AUCInf hr * ng/mL (mouse, PO), tested at 5 mpk.
The mark [7] stands for this setting: MM.1S cells, 72 h treatment, read-out: Cytotoxicity [EC50].

Like-named read-outs stand apart in the source and are kept apart here.

Regarding `O=C(/C=C\n1cnc(-c2cc(C(F)(F)F)cc(C(F)(F)F)c2)n1)NNc1cnccn1` [Compound 70], the AUC(0-inf) in data set [1] (setting [5]) amounted to 10100 ng·h/mL. Further, the EC50 (commonly the midpoint of the concentration-response curve) at 72 h in data set [2] is < 1000 nM.

Consider `O=C(/C=C\n1cnc(-c2cc(C(F)(F)F)cc(C(F)(F)F)c2)n1)N1CCC1` [Compound 23, (Z)-1-(azetidin-1-yl)-3-(3-(3,5-bis (trifluoromethyl)phenyl)-1H-1,2,4-triazol-1-yl) prop-2-en-1-one], for which the AUC(0-inf) in data set [1] (setting [5]) came to 521 ng·h/mL. Besides, the EC50 at 72 h in data set [2] is < 1000 nM.

On to `NCC1(F)CN(C(=O)/C=C\n2cnc(-c3cc(C(F)(F)F)cc(C(F)(F)F)c3)n2)C1` [Compound 60, (Z)-1-(3-(aminomethyl)-3-fluoroazetidin-1-yl)-3-(3-(3,5-bis(trifluoromethyl)phenyl)-1H-1,2,4-triazol-1-yl)prop-2-en-1-one], for which the AUC(0-inf) in data set [1] (setting [6]) was 1240 ng·h/mL. For the same compound, the Kp (in general, the ratio of the level in a tissue or fluid to that in plasma or blood) at 2 h in data set [3] was determined as 13.3. For the same compound, in data set [2], the EC50 at 72 h is < 1000 nM.

As for `O=C(/C=C\n1cnc(-c2cc(C(F)(F)F)cc(C(F)(F)F)c2)n1)N1CC(F)C1` [Example 7, (Z)-3-(3-(3,5-bis(trifluoromethyl)phenyl)-1H-1,2,4-triazol-1-yl)-1-(3-fluoroazetidin-1-yl)prop-2-en-1-one], the AUC(0-inf) in data set [1] (setting [5]) was 2510 ng·h/mL. Further, the EC50 at 72 h in data set [2] is < 1000 nM.

For the compound `O=C(/C=C\n1cnc(-c2cc(C(F)(F)F)cc(C(F)(F)F)c2)n1)NCc1cnco1` [Example 11, (Z)-3-(3-(3,5-bis(trifluoromethyl)phenyl)-1H-1,2,4-triazol-1-yl)-N-(oxazol-5-ylmethyl)acrylamide], the AUC(0-inf) in data set [1] (setting [6]) worked out at 3080 ng·h/mL. Also, in data set [2], the EC50 at 72 h is < 1000 nM.

With `CC1(O)CN(C(=O)/C=C\n2cnc(-c3cc(C(F)(F)F)cc(C(F)(F)F)c3)n2)C1` [Example 8, (Z)-3-(3-(3,5-bis(trifluoromethyl)phenyl)-1H-1,2,4-triazol-1-yl)-1-(3-hydroxy-3-methylazetidin-1-yl)prop-2-en-1-one], in data set [1] (setting [6]), the AUC(0-inf) turned out to be 9050 ng·h/mL. Besides, the Kp at 2 h in data set [3] came to 3.16. Further, in data set [2], the EC50 at 72 h is < 1000 nM.

As for “(Z)-3-(3-(3,5-bis(trifluoromethyl)phenyl)-1H-1,2,4-triazole-1-yl)-N-(1-(5-methylpyrimidine-2-yl)ethyl)acrylamide [Compound 21]”, the EC50 in data set [4] (setting [7]) was in the range of 1000 to 10000 nM.

For `CN(C)CC1CN(C(=O)/C=C\n2cnc(-c3cc(C(F)(F)F)cc(C(F)(F)F)c3)n2)C1` [Compound 25, (Z)-3-(3-(3,5-bis(trifluoromethyl)phenyl)-1H-1,2,4-triazol-1-yl)-1-(3-((dimethylamino)methyl)azetidin-1-yl)prop-2-en-1-one], the AUC(0-inf) in data set [1] (setting [5]) worked out at 2640 ng·h/mL. Also, the EC50 at 72 h in data set [2] is < 1000 nM.

As to `O=C(/C=C\n1cnc(-c2cc(F)cc(C(F)(F)F)c2)n1)N1CC(F)(F)C1` [Example 2, (Z)-1-(3,3-difluoroazetidin-1-yl)-3-(3-(3-fluoro-5-(trifluoromethyl)phenyl)-1H-1,2,4-triazol-1-yl)prop-2-en-1-one], the AUC(0-inf) in data set [1] (setting [5]) turned out to be 396 ng·h/mL. In data set [2], the concentration for a half-maximal effect (EC50) at 72 h was < 1000 nM.

“(E)-3-(6-(3,5-bis(trifluoromethyl)phenyl)pyridin-2-yl)-1-(3,3-difluoroazetidin-1-yl)prop-2-en-1-one [Compound 15]”: the EC50 in data set [4] is > 10000 nM.

With “(Z)-3-(2-(3,5-bis(trifluoromethyl)phenyl)-1H-pyrrol-1-yl)-1-(3,3-difluoroazetidin-1-yl)prop-2-en-1-one [Compound 65]”, in data set [4] (setting [7]), the EC50 is > 10000 nM.

On to `O=C(/C=C\n1cnc(-c2cc(C(F)(F)F)cc(C(F)(F)F)c2)n1)NNc1ccccn1` [Compound 71], for which the AUC(0-inf) in data set [1] (setting [5]) was found to be 10800 ng·h/mL. Moreover, the Kp at 2 h in data set [3] worked out at 1.8. The concentration for a half-maximal effect (EC50) at 72 h in data set [2] was < 1000 nM.

With `O=C(/C=C\n1cnc(-c2cc(C(F)(F)F)cc(C(F)(F)F)c2)n1)N1CCC(O)CC1` [Compound 66, (Z)-3-(3-(3,5-bis(trifluoromethyl)phenyl)-1H-1,2,4-triazol-1-yl)-1-(4-hydroxypiperidin-1-yl)prop-2-en-1-one], the half-maximal effective concentration (EC50) at 72 h in data set [2] is < 1000 nM.

`CCN(C(=O)/C=C\n1cnc(-c2cc(C(F)(F)F)cc(C(F)(F)F)c2)n1)C(C)c1cccnc1` (stereo not shown) [Example 10, (Z)-3-(3-(3,5-bis(trifluoromethyl)phenyl)-1H-1,2,4-triazol-1-yl)-N-ethyl-N-(1-(pyridin-3-yl)ethyl)acrylamide]: the concentration for a half-maximal effect (EC50) at 72 h in data set [2] lay in the range of 1000 to 10000 nM.

As for `O=C(/C=C\N1CCC(c2cc(C(F)(F)F)cc(C(F)(F)F)c2)C1)N1CC(F)(F)C1` (stereo not shown) [Compound 43, (Z)-3-(3-(3,5-bis(trifluoromethyl)phenyl)pyrrolidin-1-yl)-1-(3,3-difluoroazetidin-1-yl)prop-2-en-1-one], in data set [2], the EC50 at 72 h is > 10000 nM.

Turning to `O=C(/C=C\n1cnc(-c2cc(C(F)(F)F)cc(C(F)(F)F)c2)n1)N1CCCC(F)(F)C1` [Example 5, (Z)-3-(3-(3,5-bis(trifluoromethyl)phenyl)-1H-1,2,4-triazol-1-yl)-1-(3,3-difluoropiperidin-1-yl)prop-2-en-1-one], the EC50 at 72 h in data set [2] fell in the range of 1000 to 10000 nM.

For the compound `O=C(/C=C\n1cnc(-c2cc(C(F)(F)F)cc(C(F)(F)F)c2)c1)N1CC(F)(F)C1` [Compound 16, (Z)-3-(4-(3,5-bis(trifluoromethyl)phenyl)-1H-imidazol-1-yl)-1-(3,3-difluoroazetidin-1-yl)prop-2-en-1-one], the EC50 at 72 h in data set [2] is < 1000 nM.

Turning to `O=C(/C=C\n1ccc(-c2cc(C(F)(F)F)cc(C(F)(F)F)c2)n1)N1CC(F)(F)C1` [Compound 35, (Z)-3-(3-(3,5-bis(trifluoromethyl)phenyl)-1H-pyrazol-1-yl)-1-(3,3-difluoroazetidin-1-yl)prop-2-en-1-one], in data set [2], the EC50 at 72 h is < 1000 nM.

Turning to `Cc1ncc(CN(C)C(=O)/C=C\n2cnc(-c3cc(C(F)(F)F)cc(C(F)(F)F)c3)n2)cn1` [Compound 18, (Z)-3-(3-(3,5-bis(trifluoromethyl)phenyl)-1H-1,2,4-triazol-1-yl)-N-methyl-N-((2-methylpyrimidin-5-yl)methyl)acrylamide], the EC50 at 72 h in data set [2] was in the range of 1000 to 10000 nM.

With `O=C1CC(c2cc(C(F)(F)F)cc(C(F)(F)F)c2)CN1/C=C/C(=O)N1CC(F)(F)C1` (stereo not shown) [Compound 44, (E)-4-(3,5-bis(trifluoromethyl)phenyl)-1-(3-(3,3-difluoroazetidin-1-yl)-3-oxoprop-1-enyl)pyrrolidin-2-one], in data set [2], the concentration for a half-maximal effect (EC50) at 72 h was > 10000 nM.

For `O=C(/C=C\n1cnc(-c2cc(C(F)(F)F)cc(C(F)(F)F)c2)n1)N1CC(O)(C(F)(F)F)C1` [Compound 51, (Z)-3-(3-(3,5-bis(trifluoromethyl)phenyl)-1H-1,2,4-triazol-1-yl)-1-(3-hydroxy-3-(trifluoromethyl)azetidin-1-yl)prop-2-en-1-one], the EC50 at 72 h in data set [2] was < 1000 nM.

In the case of `O=C(/C=C\n1cnc(-c2cc(C(F)(F)F)cc(C(F)(F)F)c2)n1)N1CCC(F)(F)CC1` [Example 6, (Z)-3-(3-(3,5-bis(trifluoromethyl)phenyl)-1H-1,2,4-triazol-1-yl)-1-(4,4-difluoropiperidin-1-yl)prop-2-en-1-one], in data set [2], the EC50 at 72 h was in the range of 1000 to 10000 nM.
